Literature values, collected in patent US9801891B2, “Compositions and methods for lowering intraocular pressure” (ALLERGAN, INC., priority 2009, dated 2017).

Test system: alpha-2 adrenoceptor

Brc1c(N=C2NCCN2)ccc2nccnc12.O=C(O)C(O)C(O)C(=O)O [Brimonidine tartrate, 5-bromo-6-(2-imidazolidinylideneamino) quinoxaline L-tartrate]
Selectivity for the alpha-2 adrenoceptor over the alpha-1 adrenoreceptor: 1000 fold
